Structures can show the parent of a compound that is named as a salt.
How the values were obtained:
HCT116 [1] = test: AC50 cell viability (CellTiter-Glo); higher = less potent; details: 48 h
HCT116 [2] = test: efficacy (fitted maximal change in viability relative to DMSO control); higher = less cytotoxic (negative = loss of viability); details: 48 h
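Throughout, for AC50 cell viability (CellTiter-Glo): HCT116 colorectal carcinoma cells screened at five concentrations per compound, luminescent viability scaled between DMSO wells and empty wells on each plate, curves fitted per compound.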
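Throughout, for efficacy (fitted maximal change in viability relative to DMSO control): Luminescence-based viability readout, five doses per compound, normalized against on-plate DMSO and empty-well controls, followed by dose-response curve fitting for every drug.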

SMILES: COc1cc2c(cc1O)CCN[C@]21CS[C@@H]2c3c(OC(C)=O)c(C)c4c(c3[C@H](COC1=O)N1[C@@H]2[C@H]2c3c(cc(C)c(OC)c3O)C[C@@H]([C@@H]1O)N2C)OCO4 [Trabectedin]
- AC50 cell viability (HCT116 [1]): 0.0121 µM
- efficacy (HCT116 [2]): -69.8%

SMILES: CN1C(=O)C(=C/2N(C(=O)N(C3CC3)C(=O)C2=C1/NC4=CC=C(I)C=C4F)C5=CC=CC(=C5)NC(C)=O)\C [Trametinib]
- AC50 cell viability (HCT116 [1]): 0.0468 µM
- efficacy (HCT116 [2]): -62.3%

SMILES: CC(/C=C/C(=O)NO)=C\[C@@H](C)C(=O)c1ccc(N(C)C)cc1 [Trichostatin A]
- AC50 cell viability (HCT116 [1]): 0.332 µM
- efficacy (HCT116 [2]): -82.3%

SMILES: CN1\N=C(N)/C2=C[N]([C@@H]3O[C@H](CO[P](O)(O)=O)[C@@H](O)[C@H]3O)C4=C2C1=NC=N4 [Triciribine phosphate]
- AC50 cell viability (HCT116 [1]): 2.95 µM
- efficacy (HCT116 [2]): -90.5%

SMILES: CN1CCN(CCCN2c3ccccc3Sc3ccc(C(F)(F)F)cc32)CC1 [Trifluoperazine hydrochloride]
- AC50 cell viability (HCT116 [1]): 26.3 µM
- efficacy (HCT116 [2]): -119%

SMILES: OC[C@H]1O[C@H](C[C@@H]1O)N2/C=C(C(=O)NC2=O)/C(F)(F)F [Trifluridine]
- AC50 cell viability (HCT116 [1]): 2.63 µM
- efficacy (HCT116 [2]): -62.4%

SMILES: C[C@]12CC[C@H]3[C@@H](CC[C@@]45O[C@@H]4\C(=C(/C[C@]35C)C#N)O)[C@@H]1CC[C@@H]2O [Trilostane]
- AC50 cell viability (HCT116 [1]): 13.2 µM
- efficacy (HCT116 [2]): -31.9%

SMILES: COc1cc(NCc2ccc3nc(N)nc(N)c3c2C)cc(OC)c1OC [Trimetrexate]
- AC50 cell viability (HCT116 [1]): 1.05 µM
- efficacy (HCT116 [2]): -77.8%

SMILES: CC/1=C(\O)C(=O)\C=C2/C1=C\C=C3/[C@@]2(C)CC[C@@]4(C)[C@@H]5C[C@@](C)(CC[C@]5(C)CC[C@]34C)C(O)=O [Tripterin]
- AC50 cell viability (HCT116 [1]): 3.32 µM
- efficacy (HCT116 [2]): -98.9%

SMILES: CC(C)[C@]12O[C@H]1[C@@H]3O[C@@]34[C@@]5(C)CC\C6=C(COC6=O)/[C@@H]5C[C@@H]7O[C@]47[C@@H]2O [Triptolide]
- AC50 cell viability (HCT116 [1]): 0.0235 µM
- efficacy (HCT116 [2]): -52.7%

SMILES: CC(C)[C@]12O[C@H]1[C@@H]3O[C@@]34[C@@]5(C)CC\C6=C(COC6=O)/[C@@H]5C[C@@H]7O[C@]47C2=O [Triptonide]
- AC50 cell viability (HCT116 [1]): 0.0295 µM
- efficacy (HCT116 [2]): -59.2%

SMILES: Cc1c(C)c2c(c(C)c1O)CCC(C)(COc1ccc(CC3SC(=O)NC3=O)cc1)O2 (centres undefined) [Troglitazone]
- AC50 cell viability (HCT116 [1]): 18.6 µM
- efficacy (HCT116 [2]): -55.1%

SMILES: CN1CCc2c(c3ccccc3n2Cc2ccc(C(=O)NO)cc2)C1 [Tubastatin A]
- AC50 cell viability (HCT116 [1]): 10.5 µM
- efficacy (HCT116 [2]): -93.8%

SMILES: CC1=C(OC2=CC3=NC=N[N]3C=C2)C=CC(=C1)NC4=NC=NC5=C4C=C(N\C6=N\C(C)(C)CO6)C=C5 [Tucatinib]
- AC50 cell viability (HCT116 [1]): 20.9 µM
- efficacy (HCT116 [2]): -71.1%

SMILES: C=C1[C@H](OC(=O)/C=C(\C)CC)C[C@@H](C(C)C)[C@@H]2[C@H]([C@@H](C)OC(C)=O)C(=O)C[C@@H]12 [Tussilagone]
- AC50 cell viability (HCT116 [1]): 20.9 µM
- efficacy (HCT116 [2]): -67.9%

SMILES: CN(C)CCN1C(=O)c2cccc3cc(NC(N)=O)cc(c23)C1=O [UNBS-5162]
- AC50 cell viability (HCT116 [1]): 4.68 µM
- efficacy (HCT116 [2]): -75%

SMILES: CCCCNc1ncc2c(-c3ccc(CN4CCN(C)CC4)cc3)cn([C@H]3CC[C@H](O)CC3)c2n1 [UNC2025 (hydrochloride)]
- AC50 cell viability (HCT116 [1]): 1.66 µM
- efficacy (HCT116 [2]): -93.7%

SMILES: CCCCNc1ncc(-c2ccc(CN3CCOCC3)cn2)c(N[C@H]2CC[C@H](O)CC2)n1 [UNC2250]
- AC50 cell viability (HCT116 [1]): 3.62 µM
- efficacy (HCT116 [2]): -51.5%

SMILES: CCCCNc1ncc2c(-c3ccc(F)cc3)nn(C[C@H]3CC[C@H](N)CC3)c2n1 [UNC-569]
- AC50 cell viability (HCT116 [1]): 7.23 µM
- efficacy (HCT116 [2]): -83.5%

SMILES: COc1cc2c(NC3CCN(CC4CCCCC4)CC3)nc(N3CCCN(C(C)C)CC3)nc2cc1OCCCN1CCCCC1 [UNC-0631]
- AC50 cell viability (HCT116 [1]): 7.42 µM
- efficacy (HCT116 [2]): -106%

SMILES: COc1cc2c(NC3CCN(C(C)C)CC3)nc(C3CCCCC3)nc2cc1OCCCN1CCCC1 [UNC-0638]
- AC50 cell viability (HCT116 [1]): 8.33 µM
- efficacy (HCT116 [2]): -94.9%

SMILES: COc1cc2c(NC3CCN(C4CCCCC4)CC3)nc(N3CCCN(C(C)C)CC3)nc2cc1OCCCN1CCCCC1 [UNC-0646]
- AC50 cell viability (HCT116 [1]): 2.95 µM
- efficacy (HCT116 [2]): -102%

Source: the supplement of paper PMC10290057
